Measured values published in US6638945B1, “Quinoline derivatives as inhibitors of MEK enzymes” (AstraZeneca AB, priority 1999, dated 2003).
pIC50: −log10 of the molar value.

Target: human p45MEK1 (GST-MEK) (Homo sapiens, UniProt Q02750)
Experiment: Assay for inhibitors of the MAP kinase pathway (coupled GST-MEK/GST-MAPK/MBP 33P assay)
Format: biochemical
Conditions: GST-MEK activated by c-raf, 33P incorporation into myelin basic protein
Procedure: Assay for inhibitors of the MAP kinase pathway
To evaluate inhibitors of the MAPK pathway a coupled assay was carried out which measures phosphorylation of serine/threonine residues present in the substrate in the presence or absence of inhibitor. Recombinant glutathione S-transferase fusion protein containing human p45MEK1 (GST-MEK) was activated by c-raf (Sf9 insect cell lysate from triple baculoviral infection with c-raf/ras/lck) and used for the assay. Active GST-MEK was first used to activate a recombinant glutathione S-transferase fusion protein containing p44MAP kinase (GST-MAPK) in the presence of ATP and Mg^2+ for 60 min at room temperature in the presence or absence of potential inhibitors. The activated GST-MAPK was then incubated with myelin basic protein (MBP) as substrate for 10 min at room temperature in the presence of ATP, Mg^2+ and ^33P-ATP. The reaction was stropped by addition of 20% v/v phosphoric acid. Incorporation of ^33P into the myelin basic protein was determined by capture of the substrate on a filter mat, washing and counting using scintillation methods. The extent of inhibition was determined by comparison with untreated controls.
The final assay solution contained 10 mM Tris, pH 7.5, 0.05 mM EGTA, 8.33 μM [γ^33P]ATP, 8.33 mM Mg(OAc)2, 0.5 mM sodium orthovanadate, 0.05% w/v BSA, 6.5 ng GST-MEK, 1 μg GST-MAPK and 16.5 μg MBP in a reaction volume of 60 μl.

Chain of human p45MEK1 (GST-MEK) (Q02750 whole entry): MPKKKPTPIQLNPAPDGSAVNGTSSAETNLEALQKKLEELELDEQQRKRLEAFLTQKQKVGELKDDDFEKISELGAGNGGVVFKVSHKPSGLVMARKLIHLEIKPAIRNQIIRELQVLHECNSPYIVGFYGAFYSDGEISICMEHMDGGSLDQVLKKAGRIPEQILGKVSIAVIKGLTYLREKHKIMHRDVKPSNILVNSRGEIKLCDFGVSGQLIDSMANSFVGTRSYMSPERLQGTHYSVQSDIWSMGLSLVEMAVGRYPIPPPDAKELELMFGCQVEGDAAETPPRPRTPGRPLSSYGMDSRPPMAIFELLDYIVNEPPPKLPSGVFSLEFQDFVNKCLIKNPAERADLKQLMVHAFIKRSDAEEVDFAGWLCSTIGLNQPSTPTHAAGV

- pIC50: 6.26
SMILES: COc1cc2ncc(F)c(Nc3ccc(Oc4ccccc4)cc3)c2cc1OC [Compound No 5]
